Source: PubChem BioAssay AID248 (DTP/NCI, 2004)
Several values for one entry are separate records, joined by “and”; a condition that tells them apart may be missing. Identical values can stand only once. Toxic doses and inconclusive results are not listed. No stated cut-off is given here; in the data, active means T/C of 150% or more; inactive means T/C below 125%.

Tested on: L1210 leukemia ip in BDF1 mice, survival T/C
Test: NCI In Vivo Anticancer Drug Screen. Data for tumor model L1210 Leukemia (intraperitoneal) in B6D2F1 (BDF1) mice
Conditions: endpoint: mean survival time, higher = longer survival
Outline: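 Antitumor effect is assessed in tumor-bearing animals. Survival in the compound arm is compared with a vehicle-dosed control arm and expressed as their quotient.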

Measured: T/C

CN(C)c1ccc(Nc2c3ccccc3nc3ccccc23)cc1
inactive: dose: 3.13 mg/kg/injection, schedule: Q03HX040 (ip), vehicle: saline 106 % of control | dose: 3.75 mg/kg/injection, schedule: Q01DX Z (ip), vehicle: saline 107 % of control | dose: 3.75 mg/kg/injection, schedule: Q01DX Z (oral), vehicle: olive oil, sesame oil, peanut oil 116 % of control | dose: 5.0 mg/kg/injection, schedule: Q01DX005 (ip), vehicle: saline 107 % of control | dose: 5.0 mg/kg/injection, schedule: Q01DX009 (ip), vehicle: saline 107 % of control | dose: 5.0 mg/kg/injection, schedule: Q01DX009 (sc), vehicle: saline 101 % of control | dose: 6.12 mg/kg/injection, schedule: Q03HX008 (ip), vehicle: saline 107 % of control | dose: 6.25 mg/kg/injection, schedule: Q03HX008 (ip), vehicle: saline 104 % of control | dose: 6.25 mg/kg/injection, schedule: Q03HX016 (ip), vehicle: saline 103 % of control | dose: 7.0 mg/kg/injection, schedule: Q01DX Z (sc), vehicle: steriod suspending solution 104 % of control | dose: 7.5 mg/kg/injection, schedule: Q01DX Z (ip), vehicle: saline 110 % of control | dose: 10.0 mg/kg/injection, schedule: Q01DX005 (ip), vehicle: saline 108 % of control | dose: 10.0 mg/kg/injection, schedule: Q01DX009 (ip), vehicle: saline 117 % of control | dose: 10.0 mg/kg/injection, schedule: Q01DX009 (oral), vehicle: saline 118 % of control | dose: 10.0 mg/kg/injection, schedule: Q01DX009 (sc), vehicle: saline 102 % of control | dose: 10.0 mg/kg/injection, schedule: Q01DX Z (sc), vehicle: steriod suspending solution 115 % of control | dose: 12.5 mg/kg/injection, schedule: Q01DX Z (im), vehicle: saline 108 % of control | dose: 12.5 mg/kg/injection, schedule: Q04DX003 (ip), vehicle: saline 104 % of control | dose: 12.5 mg/kg/injection, schedule: Q06HX004 (ip), vehicle: saline 115 % of control | dose: 12.5 mg/kg/injection, schedule: Q#A X Z (oral), vehicle: saline 112 % of control | dose: 15.0 mg/kg/injection, schedule: Q01DX Z (oral), vehicle: olive oil, sesame oil, peanut oil 115 % of control | dose: 15.0 mg/kg/injection, schedule: Q01DX Z (sc), vehicle: steriod suspending solution 107 % of control | dose: 16.0 mg/kg/injection, schedule: Q01DX Z (ip), vehicle: carboxymethylcellulose (CMC) 112 % of control | dose: 17.5 mg/kg/injection, schedule: Q#A X Z (ip), vehicle: saline 116 % of control | dose: 19.0 mg/kg/injection, schedule: Q03DX006 (oral), vehicle: saline 112 % of control | dose: 20.0 mg/kg/injection, schedule: Q01DX009 (oral), vehicle: saline 101 % of control | dose: 20.0 mg/kg/injection, schedule: Q01DX009 (sc), vehicle: saline 100 % of control | dose: 22.5 mg/kg/injection, schedule: Q01DX009 (ip), vehicle: saline 120 % of control | dose: 23.0 mg/kg/injection, schedule: Q01DX Z (sc), vehicle: steriod suspending solution 115 % of control and 119 % of control | dose: 24.0 mg/kg/injection, schedule: Q01DX Z (ip), vehicle: carboxymethylcellulose (CMC) 120 % of control | dose: 24.0 mg/kg/injection, schedule: Q01DX Z (ip), vehicle: saline 111 % of control | dose: 25.0 mg/kg/injection, schedule: Q01DX001 (oral), vehicle: saline 96 % of control | dose: 25.0 mg/kg/injection, schedule: Q01DX001 (sc), vehicle: saline 96 % of control | dose: 25.0 mg/kg/injection, schedule: Q01DX005 (ip), vehicle: Klucel (hydroxypropylcellulose) (HPC) 112 % of control | dose: 25.0 mg/kg/injection, schedule: Q01DX005 (ip), vehicle: other 108 % of control and 114 % of control | dose: 25.0 mg/kg/injection, schedule: Q01DX009 (ip), vehicle: saline 116 % of control | dose: 25.0 mg/kg/injection, schedule: Q01DX Z (im), vehicle: saline 108 % of control | dose: 25.0 mg/kg/injection, schedule: Q01DX Z (oral), vehicle: saline 120 % of control | dose: 27.0 mg/kg/injection, schedule: Q01DX Z (oral), vehicle: saline 115 % of control | dose: 30.0 mg/kg/injection, schedule: Q01DX Z (ip), vehicle: olive oil, sesame oil, peanut oil 116 % of control | dose: 30.0 mg/kg/injection, schedule: Q01DX Z (sc), vehicle: olive oil, sesame oil, peanut oil 114 % of control | dose: 30.0 mg/kg/injection, schedule: Q01DX Z (sc), vehicle: saline 114 % of control | dose: 35.0 mg/kg/injection, schedule: Q01DX Z (ip), vehicle: carboxymethylcellulose (CMC) 118 % of control | dose: 35.0 mg/kg/injection, schedule: Q01DX Z (ip), vehicle: saline 101 % of control and 111 % of control | dose: 35.0 mg/kg/injection, schedule: Q01DX Z (sc), vehicle: steriod suspending solution 113 % of control | dose: 37.0 mg/kg/injection, schedule: Q03DX006 (oral), vehicle: saline 118 % of control | dose: 40.0 mg/kg/injection, schedule: Q01DX009 (sc), vehicle: saline 105 % of control | dose: 50.0 mg/kg/injection, schedule: Q01DX001 (oral), vehicle: saline 105 % of control | dose: 50.0 mg/kg/injection, schedule: Q01DX001 (sc), vehicle: saline 97 % of control | dose: 50.0 mg/kg/injection, schedule: Q01DX005 (ip), vehicle: other 112 % of control | dose: 50.0 mg/kg/injection, schedule: Q01DX Z (im), vehicle: saline 116 % of control | dose: 50.0 mg/kg/injection, schedule: Q01DX Z (oral), vehicle: saline 117 % of control | dose: 50.0 mg/kg/injection, schedule: Q04DX003 (ip), vehicle: Klucel (hydroxypropylcellulose) (HPC) 111 % of control | dose: 50.0 mg/kg/injection, schedule: Q04DX003 (ip), vehicle: other 108 % of control and 119 % of control | dose: 50.0 mg/kg/injection, schedule: Q#A X Z (oral), vehicle: saline 118 % of control | dose: 53.0 mg/kg/injection, schedule: Q01DX Z (sc), vehicle: saline 113 % of control | dose: 53.0 mg/kg/injection, schedule: Q01DX Z (sc), vehicle: steriod suspending solution 115 % of control | dose: 53.3 mg/kg/injection, schedule: Q01DX Z (ip), vehicle: carboxymethylcellulose (CMC) 115 % of control | dose: 53.3 mg/kg/injection, schedule: Q01DX Z (ip), vehicle: methylcellulose (MC) 111 % of control | dose: 60.0 mg/kg/injection, schedule: Q01DX Z (oral), vehicle: olive oil, sesame oil, peanut oil 120 % of control | dose: 60.0 mg/kg/injection, schedule: Q01DX Z (sc), vehicle: olive oil, sesame oil, peanut oil 117 % of control | dose: 80.0 mg/kg/injection, schedule: Q01DX Z (ip), vehicle: methylcellulose (MC) 95 % of control | dose: 80.0 mg/kg/injection, schedule: Q01DX Z (sc), vehicle: saline 107 % of control | dose: 90.0 mg/kg/injection, schedule: Q01DX009 (ip), vehicle: saline 119 % of control | dose: 100.0 mg/kg/injection, schedule: Q01DX001 (oral), vehicle: saline 112 % of control | dose: 100.0 mg/kg/injection, schedule: Q01DX001 (sc), vehicle: saline 108 % of control | dose: 100.0 mg/kg/injection, schedule: Q01DX005 (ip), vehicle: other 100 % of control | dose: 100.0 mg/kg/injection, schedule: Q04DX003 (ip), vehicle: other 112 % of control | dose: 105.0 mg/kg/injection, schedule: Q01DX Z (ip), vehicle: saline 114 % of control | dose: 120.0 mg/kg/injection, schedule: Q01DX Z (oral), vehicle: olive oil, sesame oil, peanut oil 111 % of control | dose: 120.0 mg/kg/injection, schedule: Q01DX Z (sc), vehicle: saline 120 % of control | dose: 125.0 mg/kg/injection, schedule: Q01DX001 (ip), vehicle: Klucel (hydroxypropylcellulose) (HPC) 115 % of control | dose: 125.0 mg/kg/injection, schedule: Q01DX001 (ip), vehicle: saline 111 % of control | dose: 135.0 mg/kg/injection, schedule: Q#A X Z (ip), vehicle: saline 97 % of control | dose: 175.0 mg/kg/injection, schedule: Q01DX001 (oral), vehicle: saline 108 % of control and 121 % of control | dose: 175.0 mg/kg/injection, schedule: Q07DX003 (oral), vehicle: saline 117 % of control | dose: 180.0 mg/kg/injection, schedule: Q01DX Z (ip), vehicle: carboxymethylcellulose (CMC) 96 % of control and 108 % of control and 110 % of control | dose: 180.0 mg/kg/injection, schedule: Q01DX Z (sc), vehicle: saline 97 % of control | dose: 200.0 mg/kg/injection, schedule: Q01DX001 (oral), vehicle: saline 107 % of control | dose: 200.0 mg/kg/injection, schedule: Q01DX001 (sc), vehicle: saline 103 % of control | dose: 245.0 mg/kg/injection, schedule: Q01DX Z (ip), vehicle: saline 110 % of control | dose: 400.0 mg/kg/injection, schedule: Q01DX Z (im), vehicle: saline 93 % of control | dose: 405.0 mg/kg/injection, schedule: Q01DX Z (ip), vehicle: saline 100 % of control and 113 % of control | dose: 480.0 mg/kg/injection, schedule: Q01DX Z (sc), vehicle: saline 109 % of control | dose: 540.0 mg/kg/injection, schedule: Q01DX Z (ip), vehicle: saline 119 % of control | dose: 600.0 mg/kg/injection, schedule: Q03DX006 (oral), vehicle: saline 101 % of control | dose: 608.0 mg/kg/injection, schedule: Q01DX Z (ip), vehicle: saline 114 % of control | dose: 700.0 mg/kg/injection, schedule: Q01DX001 (oral), vehicle: saline 115 % of control | dose: 912.0 mg/kg/injection, schedule: Q01DX Z (ip), vehicle: saline 115 % of control | dose: 1000.0 mg/kg/injection, schedule: Q01DX001 (ip), vehicle: Klucel (hydroxypropylcellulose) (HPC) 109 % of control | dose: 1260.0 mg/kg/injection, schedule: Q01DX Z (ip), vehicle: saline 119 % of control | dose: 1400.0 mg/kg/injection, schedule: Q01DX001 (oral), vehicle: saline 109 % of control
